# Activity calls are given as the source filed them. The calls are words filed in the database; no cut-off is given here.
# T1: Tyrosinase (Agaricus bisporus, UniProt O42713)
# T1 sequence (O42713 whole entry): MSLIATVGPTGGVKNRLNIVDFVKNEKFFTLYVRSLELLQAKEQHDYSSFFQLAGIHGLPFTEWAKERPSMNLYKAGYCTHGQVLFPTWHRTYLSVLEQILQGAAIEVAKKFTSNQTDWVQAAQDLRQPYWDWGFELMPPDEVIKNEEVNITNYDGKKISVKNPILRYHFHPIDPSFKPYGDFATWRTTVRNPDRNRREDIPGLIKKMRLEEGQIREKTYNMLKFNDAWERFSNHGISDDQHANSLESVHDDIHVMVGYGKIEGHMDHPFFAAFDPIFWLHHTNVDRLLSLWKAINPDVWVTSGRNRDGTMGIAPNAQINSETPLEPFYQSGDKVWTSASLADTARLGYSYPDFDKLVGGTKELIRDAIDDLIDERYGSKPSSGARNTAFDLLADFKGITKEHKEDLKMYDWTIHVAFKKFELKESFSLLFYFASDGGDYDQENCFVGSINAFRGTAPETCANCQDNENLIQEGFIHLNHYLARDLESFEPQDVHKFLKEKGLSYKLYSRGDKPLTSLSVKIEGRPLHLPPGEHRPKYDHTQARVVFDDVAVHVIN
# T2: Tyrosinase (Agaricus bisporus) (UniProt O42713)
# T2 sequence (whole entry): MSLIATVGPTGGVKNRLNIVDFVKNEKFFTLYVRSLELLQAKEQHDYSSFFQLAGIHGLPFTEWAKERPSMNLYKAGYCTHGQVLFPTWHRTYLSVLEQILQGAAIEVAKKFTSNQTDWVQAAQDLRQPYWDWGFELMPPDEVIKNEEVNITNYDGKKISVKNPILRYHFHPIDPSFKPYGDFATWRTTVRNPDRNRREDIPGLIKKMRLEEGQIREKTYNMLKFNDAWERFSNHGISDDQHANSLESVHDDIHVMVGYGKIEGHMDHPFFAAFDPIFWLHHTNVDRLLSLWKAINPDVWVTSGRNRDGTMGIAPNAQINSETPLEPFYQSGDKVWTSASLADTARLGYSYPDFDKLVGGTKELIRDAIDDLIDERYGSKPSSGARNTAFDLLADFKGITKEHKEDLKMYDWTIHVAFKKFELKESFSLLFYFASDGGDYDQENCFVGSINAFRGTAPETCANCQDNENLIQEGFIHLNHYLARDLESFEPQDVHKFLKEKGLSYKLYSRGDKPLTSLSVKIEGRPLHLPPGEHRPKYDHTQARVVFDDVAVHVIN
# Key:
# Tyrosinase = molecular target: T1, Tyrosinase; experiment: Inhibition of mushroom tyrosinase assessed as reduction in dopachrome formation using L-DOPA as substrate preincubated for 20 mins followed by substrate addition by spectrophotometry
# [1] = molecular target: T2, Tyrosinase (Agaricus bisporus); experiment: Competitive inhibition of mushroom tyrosinase assessed as reduction in dopachrome formation at 50 uM using L-DOPA as substrate preincubated for 20 mins followed by substrate addition by spectrophotometry based Lineweaver-Burk plot analysis
# [2] = compound: COc1ccc(C(=O)N/N=C/c2ccc(Cl)cc2)cc1OC; experiment: Competitive inhibition of mushroom tyrosinase assessed as reduction in dopachrome formation by measuring substrate Vmax at 50 uM using L-DOPA as substrate preincubated for 20 mins followed by substrate addition by spectrophotometry based Lineweaver-Burk plot analysis (reference value: […] mM/min); settings: Agaricus bisporus
# [3] = compound: COc1ccc(C(=O)N/N=C/c2ccc(Cl)cc2)cc1OC; experiment: Competitive inhibition of mushroom tyrosinase assessed as reduction in dopachrome formation by measuring substrate Km at 50 uM using L-DOPA as substrate preincubated for 20 mins followed by substrate addition by spectrophotometry based Lineweaver-Burk plot analysis (reference value: […] mM); settings: Agaricus bisporus
Molecule,IC50 (Tyrosinase) [µM],other results
COc1ccc(/C=N/NC(=O)c2ccc(OC)c(OC)c2)cc1,> 50,–
CCOc1cc(/C=N/NC(=O)c2ccc(OC)c(OC)c2)ccc1O,> 50,–
COc1ccc(C(=O)N/N=C/c2cc(OC)c(O)c(OC)c2)cc1OC,> 50,–
COc1ccc(C(=O)N/N=C/c2ccc(O)cc2O)cc1OC,31.5,–
COc1ccc(/C=N/NC(=O)c2ccc(OC)c(OC)c2)cc1OC,> 50,–
COc1ccc(C(=O)N/N=C/c2ccc(N(C)C)cc2)cc1OC,> 50,–
COc1ccc(C(=O)N/N=C/c2ccc(O)cc2)cc1OC,> 50,–
COc1ccc(C(=O)N/N=C/c2cccc(O)c2O)cc1OC,20.6,–
COc1ccc(C(=O)N/N=C/c2ccc(OC(C)=O)c(OC)c2)cc1OC,28.3,–
COc1ccccc1/C=N/NC(=O)c1ccc(OC)c(OC)c1,35.2,–
COc1ccc(C(=O)N/N=C/c2ccc([N+](=O)[O-])cc2)cc1OC,> 50,–
COc1ccc(C(=O)N/N=C/c2ccc(Br)cc2)cc1OC,> 50,–
COc1ccc(C(=O)N/N=C/c2cc(OC)c(OC)c(OC)c2)cc1OC,37.4,–
COc1ccc(C(=O)N/N=C/c2ccc(Cl)cc2)cc1OC,19.7,inhibition [1]: Active
COc1cc(/C=N/NC(=O)c2ccc(OC)c(OC)c2)ccc1O,> 50,–
COc1ccc(C(=O)N/N=C/c2cccc([N+](=O)[O-])c2)cc1OC,> 50,–
"Tyrosinase (Agaricus bisporus), O42713 (protein) MSLIATVGPTGGVKNRLNIVDFVKNEKFFTLYVRSLELLQAKEQHDYSSFFQLAGIHGLPFTEWAKERPSMNLYKAGYCTHGQVLFPTWHRTYLSVLEQILQGAAIEVAKKFTSNQTDWVQAAQDLRQPYWDWGFELMPPDEVIKNEEVNITNYDGKKISVKNPILRYHFHPIDPSFKPYGDFATWRTTVRNPDRNRREDIPGLIKKMRLEEGQIREKTYNMLKFNDAWERFSNHGISDDQHANSLESVHDDIHVMVGYGKIEGHMDHPFFAAFDPIFWLHHTNVDRLLSLWKAINPDVWVTSGRNRDGTMGIAPNAQINSETPLEPFYQSGDKVWTSASLADTARLGYSYPDFDKLVGGTKELIRDAIDDLIDERYGSKPSSGARNTAFDLLADFKGITKEHKEDLKMYDWTIHVAFKKFELKESFSLLFYFASDGGDYDQENCFVGSINAFRGTAPETCANCQDNENLIQEGFIHLNHYLARDLESFEPQDVHKFLKEKGLSYKLYSRGDKPLTSLSVKIEGRPLHLPPGEHRPKYDHTQARVVFDDVAVHVIN",–,Vmax [2]: 0.15 mM/min; Km [3]: 5.88 mM

# Source: ChEMBL document CHEMBL4390695, “Veratric acid derivatives containing benzylidene-hydrazine moieties as promising tyrosinase inhibitors and free radical scavengers” (Bioorg Med Chem, 2019)
